BindingDB's records for doi:10.1111/j.1747-0285.2012.01362.x (Washington University, 2012)

These compounds were tested against T1, PhoP (Salmonella enterica I, UniProt A6XC03) (assay: Inhibition Assay).
T1 sequence (A6XC03 whole entry): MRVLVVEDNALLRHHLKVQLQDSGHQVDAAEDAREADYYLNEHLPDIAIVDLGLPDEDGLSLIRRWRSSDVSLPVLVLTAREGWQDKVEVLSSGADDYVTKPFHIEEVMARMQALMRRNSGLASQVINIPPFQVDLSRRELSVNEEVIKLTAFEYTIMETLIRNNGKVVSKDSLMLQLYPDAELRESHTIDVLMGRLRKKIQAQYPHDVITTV
Excerpt: Inhibition of a protein-protein activity by EMSA assay.

Row | SMILES | IC50 [µM]
1 | N#Cc1ccc(OC(=O)c2ccc(NC(=N)N)cc2)cc1 [NSC168197, 8] | 285
2 | O=C1c2ccccc2C(=O)c2c1ccc(C(=O)O)c2-c1cccc2ccccc12 [NSC9608, 1] | 11000
3 | CC12CCC(=O)C=C1CCC1C2CCC2(C)C(C(=O)COS(=O)(=O)c3ccc(Br)cc3)CCC12 (stereo not drawn) [NSC88915, 6] | 17
4 | CC(C)c1ccc2c(c1)CCC1C(C)(CN)CCCC21C (stereo not drawn) [NSC65238, 5] | 20
5 | c1ccc(C[n+]2cccc(-c3cc4ccccc4[nH]3)c2)cc1 [NSC118806, 7] | 109
6 | CN(C)CCC(=O)C1(O)CCC2C3CC=C4CC(O)CCC4(C)C3CCC21C (stereo not drawn) [NSC48630, 3] | 3.6
7 | O=C(C[n+]1ccc2ccccc2c1)c1ccc2ccc3ccccc3c2c1 [NSC35489, 4] | 14000
8 | O=S(=O)(O)c1ccc2c(N=Nc3c(O)ccc4ccccc34)cccc2c1 [NSC45576, 2] | 12
